Data on eight compounds can be found in patent publication US20200087248A1, “Fluoroallylamine Derivative And Use Thereof” (SICHUAN KELUN-BIOTECH BIOPHARMACEUTICAL CO., LTD., priority 2017, published 2020).

Structures can show the parent of a compound that is named as a salt.

In series [1] the target is T1, MAO-B (Homo sapiens, UniProt P27338).
T1 construct: purchased Sigma Aldrich
T1 sequence (P27338 1-520): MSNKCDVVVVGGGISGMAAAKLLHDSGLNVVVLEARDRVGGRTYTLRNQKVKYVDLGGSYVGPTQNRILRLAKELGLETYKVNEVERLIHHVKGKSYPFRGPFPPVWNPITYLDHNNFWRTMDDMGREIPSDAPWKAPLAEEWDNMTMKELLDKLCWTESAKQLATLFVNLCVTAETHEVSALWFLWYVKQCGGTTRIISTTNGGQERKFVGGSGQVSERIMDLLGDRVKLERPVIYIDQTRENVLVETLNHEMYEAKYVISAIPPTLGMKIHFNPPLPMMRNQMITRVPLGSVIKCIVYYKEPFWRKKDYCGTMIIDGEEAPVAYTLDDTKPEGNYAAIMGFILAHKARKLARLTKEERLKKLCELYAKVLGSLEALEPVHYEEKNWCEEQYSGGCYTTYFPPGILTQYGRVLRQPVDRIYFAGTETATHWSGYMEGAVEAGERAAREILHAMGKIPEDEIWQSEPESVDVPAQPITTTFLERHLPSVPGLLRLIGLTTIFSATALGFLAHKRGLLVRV
Description: Inhibition of the enzymatic activity of MAO-B. The class given is biochemical. Conditions: range of IC50 from inhibition rates at 10 μM, 1 μM and 0.1 μM; read-out: IC50, inhibition against the enzymatic activity of MAO-B. As for the experimental part: Inhibition Experiment Against the Enzymatic Activity of MAO-B (Monoamine Oxidase Type B)
(§1) 1. Test kit: Amplex® Red Monoamine Oxidase Assay, Manufacturer: ThermoFisher
Protein: MAO-B, manufacturer: Sigma Aldrich
According to the method as described in the specification of the test kit, MAO-B protein (5 μg/ml) and different concentrations of the test compound were pre-incubated at room temperature for 10 minutes, and then 150 μM benzylamine hydrochloride, 1 U/mL HRP and 200 μM Amplex Red reagent were added to start the reaction. The relative inhibition rate of each concentration group were calculated according to the experimental method of MAO-A.
According to the above method, the inhibition of the compound against the activity of the MAO-B was measured, and the range of IC50 was obtained according to the inhibition rates at 10 μM, 1 μM and 0.1 μM.

In series [2] the target is T2, VAP-1 (Homo sapiens, UniProt Q16853).
T2 construct: purchased R&D Systems
T2 sequence (Q16853 1-763): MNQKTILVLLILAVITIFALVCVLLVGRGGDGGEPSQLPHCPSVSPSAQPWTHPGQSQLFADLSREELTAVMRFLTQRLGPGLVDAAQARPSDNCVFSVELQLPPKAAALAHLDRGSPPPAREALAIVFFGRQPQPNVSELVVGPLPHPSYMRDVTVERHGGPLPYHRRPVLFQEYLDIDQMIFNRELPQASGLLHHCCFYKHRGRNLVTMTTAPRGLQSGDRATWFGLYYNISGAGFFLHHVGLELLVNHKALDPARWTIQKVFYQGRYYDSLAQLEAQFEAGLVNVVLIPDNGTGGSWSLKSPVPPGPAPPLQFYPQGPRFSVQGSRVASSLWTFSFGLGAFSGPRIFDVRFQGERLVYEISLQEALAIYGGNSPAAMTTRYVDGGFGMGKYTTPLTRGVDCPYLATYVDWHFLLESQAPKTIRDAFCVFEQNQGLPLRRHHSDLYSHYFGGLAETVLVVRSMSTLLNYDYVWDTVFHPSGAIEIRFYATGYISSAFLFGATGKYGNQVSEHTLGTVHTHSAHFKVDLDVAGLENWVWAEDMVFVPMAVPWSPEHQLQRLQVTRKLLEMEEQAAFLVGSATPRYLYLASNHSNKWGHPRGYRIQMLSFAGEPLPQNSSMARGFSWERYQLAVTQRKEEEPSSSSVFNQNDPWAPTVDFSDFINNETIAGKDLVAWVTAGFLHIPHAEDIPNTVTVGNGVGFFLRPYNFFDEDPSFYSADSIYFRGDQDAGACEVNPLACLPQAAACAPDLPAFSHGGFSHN
As to the kind of experiment: Inhibition of the enzymatic activity of VAP-1 in vitro (Amplex Red). Conditions: VAP-1 protein about 20 nM, 10 min pre-incubation, benzylamine substrate; read-out: IC50, inhibition against the enzymatic activity of VAP-1. The class given is biochemical. As for the experimental part: Inhibition Experiment Against the Enzymatic Activity of VAP-1(Vascular Adhesion Protein 1) in vitro
Test kit: Amplex® Red Monoamine Oxidase Assay, Manufacturer: ThermoFisher
Reaction buffer solution: 50 mM PBS, pH 7.4
Enzyme: VAP-1, Manufacturer: R&D Systems
VAP-1 protein (about 20 nM) and different concentrations of the test compound were pre-incubated at room temperature for 10 minutes, followed by an addition of […] benzylamine hydrochloride, 1 U/mL HRP and 200 μM Amplex Red reagent according to the specification of the test kit to start the reaction. The reaction plate was placed in the enzyme marker, and in kinetic mode, fluorescence signals were measured at Ex/Em=540/590 nm. The relative inhibition activity of each concentration group was calculated, wherein the ratio (slope) of fluorescence signal to reaction time in the linear range is the reaction rate, the vehicle group (DMSO) is the negative control, and the reaction buffer solution group (without enzymes and the compounds) is the blank control. The half inhibition concentration (IC50) of the compound was calculated according to four-parameter model fitting curve.

Series [3] deals with T3, MAO-A (Homo sapiens, UniProt P21397).
T3 construct: purchased Sigma Aldrich
T3 sequence (P21397 1-527): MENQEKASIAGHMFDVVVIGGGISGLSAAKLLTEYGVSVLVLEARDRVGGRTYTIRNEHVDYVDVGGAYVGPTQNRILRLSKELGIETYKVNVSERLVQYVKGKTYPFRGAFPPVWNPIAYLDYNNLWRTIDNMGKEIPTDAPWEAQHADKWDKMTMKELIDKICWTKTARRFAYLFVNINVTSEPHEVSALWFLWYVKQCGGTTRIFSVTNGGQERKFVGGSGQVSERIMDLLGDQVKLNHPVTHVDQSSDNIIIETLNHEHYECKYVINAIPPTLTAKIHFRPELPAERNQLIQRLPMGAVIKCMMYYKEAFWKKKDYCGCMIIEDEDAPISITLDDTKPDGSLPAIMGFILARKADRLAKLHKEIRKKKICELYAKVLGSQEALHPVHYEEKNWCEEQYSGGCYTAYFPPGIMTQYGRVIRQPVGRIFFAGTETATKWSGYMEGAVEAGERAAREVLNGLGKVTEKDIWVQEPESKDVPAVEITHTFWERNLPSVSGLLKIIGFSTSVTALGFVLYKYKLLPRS
As to the kind of experiment: Inhibition of the enzymatic activity of MAO-A. The series is classed as biochemical. Conditions: range of IC50 from inhibition rates at 100 μM and 10 μM; read-out: IC50, inhibition against the enzymatic activity of MAO-A. As for the experimental part:
Inhibition Experiment Against the Enzymatic Activity of MAO-A (Monoamine Oxidase Type A)
as §1
2. Reaction Buffer Solution: 50 mM PBS, pH 7.4
Protein: MAO-A, manufacturer: Sigma Aldrich
According to the method as described in the specification of the kit, MAO-A protein (15 μg/ml) and different concentrations of the test compound were pre-incubated at room temperature for 30 minutes, and then 200 μM p-tyramine hydrochloride, 1 U/mL HRP and 200 µM Amplex Red reagent were added to start the reaction. In kinetic mode, fluorescence signals were measured at Ex/Em=540/590 nm. The inhibition rate of each concentration group was calculated, wherein the ratio of fluorescence signal to reaction time ratio is the reaction rate, the vehicle group (DMSO) is the negative control, and the reaction buffer solution group (without enzymes and the compounds) is the blank control.
Percent inhibition rate (%)=(1-(reaction rate of each compound concentration group−reaction rate of the blank group)/(reaction rate of vehicle group−reaction rate of the blank group))*100.
According to the above method, the inhibition of the compound against the enzymatic activity of MAO-A was measured, and the range of IC50 was obtained according to the inhibition rates at 100 μM and 10 μM.

Series [4] deals with T4, hERG (Homo sapiens, UniProt Q12809).
T4 construct: purchased ThermoFisher; host or cells: hERG cell membrane supplied with the kit
T4 sequence (Q12809 whole entry): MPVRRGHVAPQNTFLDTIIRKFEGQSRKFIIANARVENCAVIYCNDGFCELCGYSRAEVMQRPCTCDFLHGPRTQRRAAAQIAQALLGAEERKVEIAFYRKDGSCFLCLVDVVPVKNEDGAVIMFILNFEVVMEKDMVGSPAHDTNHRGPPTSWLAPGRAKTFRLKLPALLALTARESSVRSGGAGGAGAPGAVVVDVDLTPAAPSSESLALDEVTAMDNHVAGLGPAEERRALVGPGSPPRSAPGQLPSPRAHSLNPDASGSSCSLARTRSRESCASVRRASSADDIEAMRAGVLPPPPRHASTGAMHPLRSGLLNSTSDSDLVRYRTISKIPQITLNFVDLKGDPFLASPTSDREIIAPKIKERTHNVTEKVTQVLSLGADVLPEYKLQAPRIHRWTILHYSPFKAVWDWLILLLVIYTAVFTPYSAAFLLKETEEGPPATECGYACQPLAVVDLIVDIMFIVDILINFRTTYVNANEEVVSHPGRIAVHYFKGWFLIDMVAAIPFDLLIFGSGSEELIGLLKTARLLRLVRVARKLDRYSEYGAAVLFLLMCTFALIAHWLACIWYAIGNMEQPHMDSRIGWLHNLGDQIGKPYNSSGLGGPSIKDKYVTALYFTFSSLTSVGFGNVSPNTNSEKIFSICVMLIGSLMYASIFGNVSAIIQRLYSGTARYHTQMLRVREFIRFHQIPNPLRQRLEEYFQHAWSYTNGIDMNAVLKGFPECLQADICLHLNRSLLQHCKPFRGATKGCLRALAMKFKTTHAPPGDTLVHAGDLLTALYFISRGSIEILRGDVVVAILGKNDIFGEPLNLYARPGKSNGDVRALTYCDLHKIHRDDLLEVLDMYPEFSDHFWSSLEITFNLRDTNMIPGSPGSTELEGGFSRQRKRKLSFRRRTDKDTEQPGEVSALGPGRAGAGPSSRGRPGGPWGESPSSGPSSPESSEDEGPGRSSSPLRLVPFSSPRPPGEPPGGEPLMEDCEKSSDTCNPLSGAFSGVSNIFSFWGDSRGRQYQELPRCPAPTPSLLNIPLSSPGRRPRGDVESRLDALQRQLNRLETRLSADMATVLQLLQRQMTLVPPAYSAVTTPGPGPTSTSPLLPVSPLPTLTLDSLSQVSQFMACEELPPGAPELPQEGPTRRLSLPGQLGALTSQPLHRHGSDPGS
Description: hERG fluorescence polarization inhibition experiment. Conditions: human, probe tracer having high affinity to hERG (kit tracer), hERG cell membrane, 25° C. 2 hours, read-out: hERG (IC50 range, competitive binding vs tracer). As for the experimental part:
hERG (Ether-a-go-go-related Gene Potassium Channel) Inhibition Experiment
Reagent: Predictor™ hERG Fluorescence Polarization Assay Kit, Manufacturer: ThermoFisher
The above test kit was used to evaluate the potential of the compound for inducing heart QT prolongation. According to the method as indicated in the specification of the test kit, the test compound, the positive control (E4031) and negative control (Experimental buffer solution) in the kit were added to a microwell plate containing hERG cell membrane, and then a tracer having high affinity to hERG was added. The microwell plate was then incubated at 25° C. for 2 hours, a BMG PHAREStar polyfunctional enzyme marker was used to test the variations in the fluorescent polarization value. By calculating the percent inhibition rates (%) at different concentrations, the range of the half inhibition concentration (IC50) was determined:
Percent inhibition rate (%)=(1-(mP of the test compound-mP of 30 μM E4031)/(mP of experimental buffer solution-mP of 30 μM E4031))*100.
In general terms: The hERG channel carries a current that helps repolarise heart muscle cells.

Series [5] addresses T5, DAO (Homo sapiens, UniProt P19801).
T5 construct: purchased R&D Systems
T5 sequence (P19801 20-751): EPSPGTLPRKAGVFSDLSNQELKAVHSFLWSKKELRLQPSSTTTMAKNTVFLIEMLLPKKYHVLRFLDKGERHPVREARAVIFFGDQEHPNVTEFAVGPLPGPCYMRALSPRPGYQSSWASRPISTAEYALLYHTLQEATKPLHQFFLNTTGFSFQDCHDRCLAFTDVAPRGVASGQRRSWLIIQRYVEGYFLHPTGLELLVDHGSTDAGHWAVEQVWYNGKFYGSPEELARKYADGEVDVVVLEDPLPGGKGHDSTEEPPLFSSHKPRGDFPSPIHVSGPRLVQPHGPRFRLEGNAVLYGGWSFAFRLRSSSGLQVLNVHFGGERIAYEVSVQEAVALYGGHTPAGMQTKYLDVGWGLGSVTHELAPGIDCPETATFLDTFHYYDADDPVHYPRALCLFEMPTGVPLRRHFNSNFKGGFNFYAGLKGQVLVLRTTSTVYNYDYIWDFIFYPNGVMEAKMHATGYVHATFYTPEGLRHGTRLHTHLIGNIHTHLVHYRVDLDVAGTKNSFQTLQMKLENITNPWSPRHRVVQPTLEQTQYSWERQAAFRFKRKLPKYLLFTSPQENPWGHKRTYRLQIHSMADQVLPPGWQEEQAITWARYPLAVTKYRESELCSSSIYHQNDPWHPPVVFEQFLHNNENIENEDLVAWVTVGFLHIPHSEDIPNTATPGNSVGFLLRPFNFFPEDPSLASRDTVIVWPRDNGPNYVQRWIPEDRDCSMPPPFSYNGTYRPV
As to the kind of experiment: Inhibition of the enzymatic activity of DAO. The class given is biochemical. Conditions: DAO 15 μg/ml, histamine substrate; read-out: IC50, inhibition against the enzymatic activity of DAO. As for the experimental part: Inhibition Experiment Against the Enzymatic Activity of DAO (Diamine Oxidase)
as §1
Protein: DAO, manufacturer: R&D Systems
DAO protein (15 μg/ml) and different concentrations of the test compound were pre-incubated at room temperature for 20 minutes, and then 100 μM Histamine-dihydrochloride, 1 U/mL HRP and 200 μM Amplex Red reagent were added to start the reaction. The inhibition rate of each concentration groups were calculated according to the experimental method of MAO-A.

`NC/C(=C/F)COc1ccc(C(=O)NC2CCOCC2)cc1` [TM76-Z, (Z)-N-(tetrahydro-2H-pyran-4-yl)-4-((2-aminomethyl-3-fluoroallyl)oxy)-benzamide trifluoroacetate]: the IC50 (commonly the concentration that inhibits the measured activity by half) is more than 100 nM in series [1], 1.8 ± 0.2 nM in series [2] and more than 100000 nM in series [3].
Regarding `NC/C(=C/F)COc1ccc(C(=O)Nc2ccc3c(c2)OCCO3)cc1` [TM114-Z, (Z)-4-((2-aminomethyl-3-fluoroallyl)oxy)-N-(2,3-dihydrobenzo[b][1,4]dioxa-6-yl)benzamide trifluoroacetate], the IC50 is 0.8 ± 0.1 nM in series [2] and more than 10000 nM in series [3].
With `NC/C(=C\F)COc1ccc(C(=O)NCc2ccccn2)cc1` [TM112-E, (E)-4-((2-aminomethyl-3-fluoroallyl)oxy)-N-(pyridin-2-ylmethyl)benzamide trifluoroacetate], the IC50 was more than 100 nM in series [1], 3.2 ± 0.4 nM in series [2] and more than 100000 nM in series [3].
Regarding “(Z)-6-((2-(methylamino)-3-fluoroallyl)oxy)-2-methyl-3,4-dihydroisoquinolin-1(2H)-one trifluoroacetate [TM66-Z]”, the results for the IC50 in series [1] and in series [2] were more than 10000 nM and 1.6 ± 0.2 nM, respectively.
As for `NC/C(=C/F)COc1ccc2c(c1)CNC2=O` [TM77-Z, (Z)-5-((2-aminomethyl-3-fluoroallyl)oxy)isoindol-1-one trifluoroacetate], the IC50 at 2 h in series [4] was more than 10000 nM. Also, in series [3], the IC50 was more than 100000 nM.
In the case of `NC/C(=C/F)COc1ccc2c(c1)C(=O)CC2` [TM7-Z, (Z)-6-((2-aminomethyl-3-fluoroallyl)oxy)-2,3-dihydro-1-indenone trifluoroacetate], the IC50 in series [1] was more than 10000 nM; in series [5], more than 100 nM; in series [2] it was 3.8 ± 0.4 nM.
For `NC/C(=C\F)COc1ccc(C(=O)Nc2ccc3c(c2)OCCO3)cc1` [TM114-E, (E)-4-((2-aminomethyl-3-fluoroallyl)oxy)-N-(2,3-dihydrobenzo[b][1,4]dioxa-6-yl)benzamide trifluoroacetate], the IC50 was 1.1 ± 0.2 nM in series [2] and more than 10000 nM in series [3].
Regarding “(Z)-6-((2-(methylamino)-3-fluoroallyl)oxy)-3,3-dimethyl-3,4-dihydroisoquinolin-1(2H)-one trifluoroacetate [TM38-Z]”, the 50% inhibitory concentration (IC50) in series [1] is more than 10000 nM; in series [5], more than 100 nM; in series [2] it was 2.9 ± 0.3 nM.
